Assay results from patent publication US20240174662A1, “SMALL MOLECULE INHIBITORS OF SALT INDUCIBLE KINASES” (Janssen Biotech, Inc., priority 2021, published 2024).

Target: SIK2 (Homo sapiens (Human), UniProt Q9H0K1)
Assay: SIK2 Enzymatic Assay Version 2 (High ATP)
Format: biochemical
Conditions: 3 mM ATP and 200 μM HDAC5tide final, ADP-Glo Max luminescence
Procedure, shortened: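 Luminescent ADP-Glo Max read-out: depletion reagent 2 h, then detection reagent 1 h. Before the reaction, compounds were incubated 30 min with enzyme added at 6 nM (twice final concentration), with all steps at room temperature.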

SIK2, sequence (Q9H0K1 whole entry, species assumed): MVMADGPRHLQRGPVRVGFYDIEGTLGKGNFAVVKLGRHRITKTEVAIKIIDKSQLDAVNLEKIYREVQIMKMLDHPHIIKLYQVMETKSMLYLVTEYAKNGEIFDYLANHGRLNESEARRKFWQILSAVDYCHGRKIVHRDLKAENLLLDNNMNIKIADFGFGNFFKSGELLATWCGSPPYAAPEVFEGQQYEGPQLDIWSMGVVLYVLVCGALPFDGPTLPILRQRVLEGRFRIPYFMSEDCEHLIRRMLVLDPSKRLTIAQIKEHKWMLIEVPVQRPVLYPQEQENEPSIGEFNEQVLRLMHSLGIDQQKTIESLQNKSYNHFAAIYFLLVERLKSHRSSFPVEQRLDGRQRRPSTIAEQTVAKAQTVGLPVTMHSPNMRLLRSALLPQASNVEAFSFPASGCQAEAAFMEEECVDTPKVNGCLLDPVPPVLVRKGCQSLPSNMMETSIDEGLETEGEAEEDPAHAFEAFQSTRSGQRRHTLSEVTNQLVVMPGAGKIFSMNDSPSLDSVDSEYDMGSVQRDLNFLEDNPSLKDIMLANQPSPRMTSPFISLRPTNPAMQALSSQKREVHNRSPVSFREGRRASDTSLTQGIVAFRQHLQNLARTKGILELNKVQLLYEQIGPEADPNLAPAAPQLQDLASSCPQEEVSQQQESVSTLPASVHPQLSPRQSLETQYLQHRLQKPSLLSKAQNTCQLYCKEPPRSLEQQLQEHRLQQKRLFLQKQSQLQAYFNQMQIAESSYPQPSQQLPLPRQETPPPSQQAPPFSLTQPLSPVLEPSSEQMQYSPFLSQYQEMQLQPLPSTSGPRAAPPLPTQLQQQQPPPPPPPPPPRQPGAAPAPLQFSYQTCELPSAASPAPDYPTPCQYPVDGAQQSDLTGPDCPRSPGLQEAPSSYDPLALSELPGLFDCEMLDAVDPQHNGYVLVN

SMILES | IC50
C[C@@H]1CN(C)C[C@@H]1Oc1cnn(C)c1-c1ccn2nc(NC(=O)C3CC3)cc2c1 (single isomer, unassigned) [Example 418, (3*R,4*R)—N-[5-[4-(1,4-dimethylpyrrolidin-3-yl)oxy-2-methyl-pyrazol-3-yl]pyrazolo[1,5-a]pyridin-2-yl]cyclopropanecarboxamide] | 0.102 µM
Cc1onc(OC[C@@H]2COCCN2)c1-c1ccn2nc(NC(=O)C3CC3)cc2c1 [Example 497] | 2.53 µM
Cc1cncc(Nc2cc3cc(-c4c(CO[C@@H]5CN(C)C[C@H]5C)cnn4C)ccn3n2)n1 (stereo in doubt) [Example 375, Trans-*R, *S-5-[4-[(1,4-dimethylpyrrolidin-3-yl)oxymethyl]-2-methyl-pyrazol-3-yl]-N-(6-methylpyrazin-2-yl)pyrazolo[1,5-a]pyridin-2-amine] | 0.0031 µM
CN1CC[C@@H]1COc1cnn(C)c1-c1ccn2nc(Nc3ccc(C4CC4)nn3)cc2c1 [Example 50, N-(6-cyclopropylpyridazin-3-yl)-5-[2-methyl-4-[[(2R)-1-methylazetidin-2-yl]methoxy]pyrazol-3-yl]pyrazolo[1,5-a]pyridin-2-amine] | 0.0026 µM
COc1nnc(Nc2cc3cc(-c4c(OC[C@H]5CCN5C)cnn4C)ccn3n2)cc1C [Example 147, N-(6-methoxy-5-methyl-pyridazin-3-yl)-5-[2-methyl-4-[[(2R)-1-methylazetidin-2-yl]methoxy]pyrazol-3-yl]pyrazolo[1,5-a]pyridin-2-amine] | 0.0009 µM
Cc1cc(Nc2cc3cc(-c4c(OC[C@@H]5CCO[C@@H]5C)cnn4C)ccn3n2)nc(C)n1 (relative stereo) [Example 295, (2*R, 3*S)—N-(2,6-dimethylpyrimidin-4-yl)-5-[2-methyl-4-[(2-methyltetrahydrofuran-3-yl)methoxy]pyrazol-3-yl]pyrazolo[1,5-a]pyridin-2-amine] | 0.0245 µM
CO[C@@H]1CN(C)C[C@H]1COc1cnn(C)c1-c1ccn2nc(NC(=O)C3CC3)cc2c1 [Example 423, N-[5-[4-[[(3S,4S)-4-methoxy-1-methyl-pyrrolidin-3-yl]methoxy]-2-methyl-pyrazol-3-yl]pyrazolo[1,5-a]pyridin-2-yl]cyclopropanecarboxamide] | 0.151 µM
CCN1CC[C@@H]1COc1cnn(C)c1-c1ccn2nc(Nc3cc(C)c(=O)n(C)n3)cc2c1 [Example 178, 6-[[5-[4-[[(2R)-1-ethylazetidin-2-yl]methoxy]-2-methyl-pyrazol-3-yl]pyrazolo[1,5-a]pyridin-2-yl]amino]-2,4-dimethyl-pyridazin-3-one] | < 0.000847 µM
CCN1CC[C@@H]1COc1cnn(C)c1-c1ccn2nc(Nc3ccc(OC)cn3)cc2c1 [Example 166, 5-[4-[[(2R)-1-ethylazetidin-2-yl]methoxy]-2-methyl-pyrazol-3-yl]-N-(5-methoxy-2-pyridyl)pyrazolo[1,5-a]pyridin-2-amine] | 0.0018 µM
CCN1CC[C@@H]1COc1cnn(C)c1-c1ccn2nc(Nc3cc(C)nc(C(C)(C)C)n3)cc2c1 [Example 177, N-(2-tert-butyl-6-methyl-pyrimidin-4-yl)-5-[4-[[(2R)-1-ethylazetidin-2-yl]methoxy]-2-methyl-pyrazol-3-yl]pyrazolo[1,5-a]pyridin-2-amine] | 0.0015 µM
Cc1cc(Nc2cc3cc(-c4c(O[C@H]5CCN(C)C5)cnn4C)ccn3n2)ncn1 [Example 265, 5-[2-methyl-4-[(3S)-1-methylpyrrolidin-3-yl]oxy-pyrazol-3-yl]-N-(6-methylpyrimidin-4-yl)pyrazolo[1,5-a]pyridin-2-amine] | 0.0305 µM
COCc1cc(Nc2cc3cc(-c4c(O[C@H]5CCN(C)C5)cnn4C)ccn3n2)ncn1 [Example 461, N-[6-(methoxymethyl)pyrimidin-4-yl]-5-[2-methyl-4-[(3S)-1-methylpyrrolidin-3-yl]oxy-pyrazol-3-yl]pyrazolo[1,5-a]pyridin-2-amine] | 0.0724 µM
Cc1cc(Nc2cc3cc(-c4c(OC[C@]5(C)CCOC5)cnn4C)ccn3n2)nc(C)n1 (single isomer, unassigned) [Example 440, (*S)—N-(2,6-dimethylpyrimidin-4-yl)-5-[2-methyl-4-[(3-methyltetrahydrofuran-3-yl)methoxy]pyrazol-3-yl]pyrazolo[1,5-a]pyridin-2-amine] | 0.0701 µM
CN1CC[C@@H]1COc1cnn(C)c1-c1ccn2nc(NC(=O)[C@H]3C[C@@H]3C(F)(F)F)cc2c1 (racemic) [Example 70, trans-N-[5-[2-methyl-4-[((2R)-1-methylazetidin-2-yl)methoxy]pyrazol-3-yl]pyrazolo[1,5-a]pyridin-2-yl]-2-(trifluoromethyl)cyclopropanecarboxamide] | 0.219 µM
CN1CCC[C@@H]1COc1cnn(C)c1-c1ccn2nc(Nc3ccc(C4CC4)nn3)cc2c1 [Example 284, N-(6-cyclopropylpyridazin-3-yl)-5-[2-methyl-4-[[(2R)-1-methylpyrrolidin-2-yl]methoxy]pyrazol-3-yl]pyrazolo[1,5-a]pyridin-2-amine] | 0.0165 µM
[2H]C([2H])([2H])N1CC[C@@H]1COc1cnn(C)c1-c1ccn2nc(Nc3cc(C)nc(C)n3)cc2c1 [Example 290, N-(2,6-dimethylpyrimidin-4-yl)-5-[2-methyl-4-[[(2R)-1-(trideuteriomethyl)azetidin-2-yl]methoxy]pyrazol-3-yl]pyrazolo[1,5-a]pyridin-2-amine] | < 0.000847 µM
CCc1cc(Nc2cc3cc(-c4c(OC[C@@H]5CCN5CC)cnn4C)ccn3n2)nc(C)n1 [Example 169, 5-[4-[[(2S)-1-ethylazetidin-2-yl]methoxy]-2-methyl-pyrazol-3-yl]-N-(6-ethyl-2-methyl-pyrimidin-4-yl)pyrazolo[1,5-a]pyridin-2-amine] | 0.0387 µM
CN1CC[C@H](Oc2cnn(C)c2-c2ccn3nc(Nc4ccc(C5CC5)nn4)cc3c2)C1 [Example 462, N-(6-cyclopropylpyridazin-3-yl)-5-[2-methyl-4-[(3S)-1-methylpyrrolidin-3-yl]oxy-pyrazol-3-yl]pyrazolo[1,5-a]pyridin-2-amine] | 0.0865 µM
C[C@@H]1C[C@H]1C(=O)Nc1cc2cc(-c3c(OC[C@H]4CCN4C)cnn3C)ccn2n1 [Example 14, (1R,2R)-2-methyl-N-[5-[2-methyl-4-[[(2R)-1-methylazetidin-2-yl]methoxy]pyrazol-3-yl]pyrazolo[1,5-a]pyridin-2-yl]cyclopropanecarboxamide] | 0.0017 µM
C[C@H]1CN(C)C[C@H]1OCc1cnn(C)c1-c1ccn2nc(NC(=O)C3CC3)cc2c1 (single isomer, unassigned) [Example 195, (3*S,4*S)—N-[5-[4-[(1,4-dimethylpyrrolidin-3-yl)oxymethyl]-2-methyl-pyrazol-3-yl]pyrazolo[1,5-a]pyridin-2-yl]cyclopropanecarboxamide] | 0.0035 µM
Cc1onc(O[C@H]2CCNC2)c1-c1ccn2nc(NC(=O)C3CC3)cc2c1 [Example 75, N-[5-[5-methyl-3-[(3S)-pyrrolidin-3-yl]oxy-isoxazol-4-yl]pyrazolo[1,5-a]pyridin-2-yl]cyclopropanecarboxamide] | 0.035 µM

Other lines, results leading:

IC50 | SMILES
< 0.000847 µM | Cn1ncc(OC[C@@H](N)c2ccccc2)c1-c1ccn2nc(NC(=O)C3CC3)cc2c1 [Example 235, N-[5-[4-[(2S)-2-amino-2-phenyl-ethoxy]-2-methyl-pyrazol-3-yl]pyrazolo[1,5-a]pyridin-2-yl]cyclopropanecarboxamide]
0.0735 µM | CCN1CCC[C@@H]1COc1cnn(C)c1-c1ccn2nc(NC(=O)C3CC3)cc2c1 [Example 427, N-[5-[4-[[(2R)-1-ethylpyrrolidin-2-yl]methoxy]-2-methyl-pyrazol-3-yl]pyrazolo[1,5-a]pyridin-2-yl]cyclopropanecarboxamide]
0.0049 µM | Cc1onc(OC[C@@H](N)c2ccccc2F)c1-c1ccn2nc(NC(=O)C3CC3)cc2c1 [Example 220, N-[5-[3-[(2S)-2-amino-2-(2-fluorophenyl)ethoxy]-5-methyl-isoxazol-4-yl]pyrazolo[1,5-a]pyridin-2-yl]cyclopropanecarboxamide]
0.097 µM | Cn1ccc(CN2CC[C@@H]2COc2cnn(C)c2-c2ccn3nc(NC(=O)C4CC4)cc3c2)n1 [Example 430, N-[5-[2-methyl-4-[[(2R)-1-[(1-methylpyrazol-3-yl)methyl]azetidin-2-yl]methoxy]pyrazol-3-yl]pyrazolo[1,5-a]pyridin-2-yl]cyclopropanecarboxamide]
0.174 µM | CN1CC(Oc2cnn(C)c2-c2ccn3nc(NC(=O)C4CC4)cc3c2)C1 [Example 399, N-[5-[2-methyl-4-(1-methylazetidin-3-yl)oxy-pyrazol-3-yl]pyrazolo[1,5-a]pyridin-2-yl]cyclopropanecarboxamide]
0.0016 µM | CCCN1CC[C@@H]1COc1cnn(C)c1-c1ccn2nc(NC(=O)C3CC3)cc2c1 [Example 246, N-[5-[2-methyl-4-[[(2R)-1-propylazetidin-2-yl]methoxy]pyrazol-3-yl]pyrazolo[1,5-a]pyridin-2-yl]cyclopropanecarboxamide]
0.0856 µM | C[C@H]1CN(C)[C@H]1COc1cnn(C)c1-c1ccn2nc(NC(=O)C3CC3)cc2c1 [Example 437, N-[5-[4-[[(2R,3S)-1,3-dimethylazetidin-2-yl]methoxy]-2-methyl-pyrazol-3-yl]pyrazolo[1,5-a]pyridin-2-yl]cyclopropanecarboxamide]
0.988 µM | CN1C[C@@H](C(F)(F)F)[C@@H]1COc1cnn(C)c1-c1ccn2nc(NC(=O)C3CC3)cc2c1 [Example 10, N-[5-[2-methyl-4-[[(2R,3R)-1-methyl-3-(trifluoromethyl)azetidin-2-yl]methoxy]pyrazol-3-yl]pyrazolo[1,5-a]pyridin-2-yl]cyclopropanecarboxamide]
0.108 µM | Cn1ncc(OC[C@H]2C[C@@H](N)C2)c1-c1ccn2nc(NC(=O)C3CC3)cc2c1 [Example 400, N-[5-[4-[(3-aminocyclobutyl)methoxy]-2-methyl-pyrazol-3-yl]pyrazolo[1,5-a]pyridin-2-yl]cyclopropanecarboxamide]
0.0107 µM | Cn1ncc(OC[C@H](N)c2ccccc2)c1-c1ccn2nc(NC(=O)C3CC3)cc2c1 [Example 237, N-[5-[4-[(2R)-2-amino-2-phenyl-ethoxy]-2-methyl-pyrazol-3-yl]pyrazolo[1,5-a]pyridin-2-yl]cyclopropanecarboxamide]
